# In PubChem BioAssay AID1259408 (Genetic Toxicology Data Bank (GENE-TOX), 2018):
# Calls of active or inactive are those of the source. How the calls were made is not given here. Bridge positions count the residues as written; N and C are the ends. Square brackets hold non-standard residues; d marks the D form. Peptide text beside a SMILES is read from it. * marks the point of attachment. ξ: configuration not given here. Heptanoyl(5-Me) = CCC(C)CCCC(=O)*; ξThr(3R) = C[C@@H](O)C(N)C(=O)O; dDab = NCC[C@@H](N)C(=O)O; Dab = NCC[C@H](N)C(=O)O
# Test system: GENE-TOX genotoxicity assays, various organisms and cells
# Experiment: GENE-TOX mutagenicity studies
# Conditions: for call: Assay Type: In vivo carcinogenicity studies
# [1] = Species/Cell Type: Human, Assay Type: Sister-chromatid exchange (SCE) in vitro, Assay Code: SC1+D, Dose Response: With dose response, Evaluation Type: Evaluation B (Post-1980)
# [2] = Species/Cell Type: Tradescantia species, Assay Type: Gene mutation, Assay Code: TRM+D, Dose Response: With dose response, Evaluation Type: Evaluation A (Pre-1980)
# [3] = Species/Cell Type: Nonhuman, Assay Type: Sister-chromatid exchange (SCE) in vitro, Assay Code: SC2+D, Dose Response: With dose response, Evaluation Type: Evaluation B (Post-1980)
# [4] = Species/Cell Type: Human lymphocytes, Assay Type: Sister-chromatid exchange (SCE) in vitro, Assay Code: SCL+, Evaluation Type: Evaluation B (Post-1980)
# [5] = Species/Cell Type: Human, Assay Type: Sister-chromatid exchange (SCE) in vitro, Assay Code: SC1+, Evaluation Type: Evaluation B (Post-1980)
# [6] = Species/Cell Type: Human lymphocytes, Assay Type: Sister-chromatid exchange (SCE) in vitro, Assay Code: SCL+D, Dose Response: With dose response, Evaluation Type: Evaluation B (Post-1980)
# [7] = Species/Cell Type: Saccharomyces cerevisiae, Assay Type: Mitotic recombination or gene conversion, Assay Code: YEC-, Evaluation Type: Evaluation A (Pre-1980)
# [8] = Species/Cell Type: Salmonella typhimurium (one or more of the five standard strains: TA98, TA100, TA1535, TA1537, and TA1538), Assay Type: Histidine reverse gene mutation, Ames assay, Assay Code: SALT, Evaluation Type: Evaluation A (Pre-1980)
# [9] = Species/Cell Type: Drosophila melanogaster, Assay Type: Sex-linked recessive lethal gene mutation, Assay Code: SRLT, Evaluation Type: Evaluation A (Pre-1980)
# [10] = Species/Cell Type: Neurospora crassa, Assay Type: Forward gene mutation, Assay Code: NEF+, Evaluation Type: Evaluation A (Pre-1980)
# [11] = Species/Cell Type: Escherichia coli polA (W3119 vs P3478), Assay Type: Rec-assay, DNA effects (bacterial DNA repair), Assay Code: RE1+, Evaluation Type: Evaluation A (Pre-1980)
# [12] = Species/Cell Type: Nonhuman, Assay Code: CCG+, Evaluation Type: Evaluation A (Pre-1980)
structure (smiles),measurement,setting,value
O=[O+][O-],mutagenic call,"Species/Cell Type: Human lymphocytes or leukocytes, Assay Type: Chromosome aberrations in vitro, Assay Code: CY7T, Evaluation Type: Evaluation A (Pre-1980)",no conclusion
same,mutagenic call,"Species/Cell Type: Human lymphocytes or leukocytes, Assay Type: Chromosome aberrations in vivo, Assay Code: CY8T, Evaluation Type: Evaluation A (Pre-1980)",no conclusion
same,mutagenic call,[1],active; positive
same,mutagenic call,"Species/Cell Type: Mammalian germ cells, Sex: Male, Assay Type: Chromosome aberrations in vivo, Assay Code: CY9T, Evaluation Type: Evaluation A (Pre-1980)",no conclusion
same,mutagenic call,"Species/Cell Type: Nonhuman bone marrow, Assay Type: Chromosome aberrations, in vivo, Assay Code: CY#-, Evaluation Type: Evaluation A (Pre-1980)",inactive; negative
same,mutagenic call,"Species/Cell Type: Nonhuman lymphocytes or leukocytes, Assay Type: Chromosome aberrations in vivo, Assay Code: CY%T, Evaluation Type: Evaluation A (Pre-1980)",no conclusion
same,mutagenic call,"Species/Cell Type: Nonhuman, Assay Type: Sister-chromatid exchange (SCE) in vivo, Assay Code: SC3-, Evaluation Type: Evaluation A (Pre-1980)",inactive; negative
same,mutagenic call,[2],active; positive
same,mutagenic call,"Species/Cell Type: Vicia faba, Assay Type: Chromosome aberrations, Assay Code: VIC+, Evaluation Type: Evaluation A (Pre-1980)",active; positive
CN(N=O)C(=O)Nc1ccccc1,mutagenic call,[3],active; positive
Cn1cnc2c1c(=O)[nH]c(=O)n2C,mutagenic call,"Species/Cell Type: Allium cepa, Assay Type: Chromosome aberrations, Assay Code: ALC-, Evaluation Type: Evaluation A (Pre-1980)",inactive; negative
same,mutagenic call,[4],active; positive
same,mutagenic call,[5],active; positive
same,mutagenic call,"Species/Cell Type: Mammalian polychromatic erythrocytes, Assay Type: Micronucleus test, chromosome aberrations, Assay Code: MNT+U, Dose Response: Unconfirmed positive response, Evaluation Type: Evaluation B (Post-1980)",active; positive
same,mutagenic call,[3],active; positive
same,mutagenic call,"Species/Cell Type: Nonhuman, Sex: Female, Assay Type: Sister-chromatid exchange (SCE) in vivo, Assay Code: SC3+DF, Dose Response: With dose response, Evaluation Type: Evaluation B (Post-1980)",active; positive
same,mutagenic call,"Species/Cell Type: Nonhuman, Sex: Male, Assay Type: Sister-chromatid exchange (SCE) in vivo, Assay Code: SC3+DM, Dose Response: With dose response, Evaluation Type: Evaluation B (Post-1980)",active; positive
C=CBr,mutagenic call,[2],active; positive
O=P1(N(CCCl)CCCl)NC(OO)CCO1 (configuration not stated),mutagenic call,[6],active; positive
same,mutagenic call,[1],active; positive
CCCCCCCCCCCCN=C(N)N,mutagenic call,[7],inactive; negative
Cc1ccc2cccc(O)c2n1,mutagenic call,[8],no conclusion
CC(CN(C)C)Nc1c2ccccc2nc2cccc([N+](=O)[O-])c12 (configuration not stated),mutagenic call,[4],active; positive
same,mutagenic call,[5],active; positive
OCCN(CCO)CCO,mutagenic call,"Species/Cell Type: Allium cepa, Assay Type: Chromosome aberrations, Assay Code: ALC+D, Dose Response: With dose response, Evaluation Type: Evaluation A (Pre-1980)",active; positive
Nc1ncc2[nH]cnc2n1,mutagenic call,[9],no conclusion
same,mutagenic call,"Species/Cell Type: Escherichia coli WP2 UVRA, Assay Type: Tryptophan reverse gene mutation, Assay Code: WPU+, Evaluation Type: Evaluation A (Pre-1980)",active; positive
same,mutagenic call,"Species/Cell Type: Mouse lymphoma (L5178Y) cells, Assay Type: Forward gene mutation at the thymidine kinase (TK) locus, chromosome aberrations, Assay Code: L51+, Evaluation Type: Evaluation A (Pre-1980)",active; positive
same,mutagenic call,"Species/Cell Type: Mouse, Sex: Female, Assay Type: Spot test, gene mutation, Assay Code: MST+, Evaluation Type: Evaluation A (Pre-1980)",active; positive
same,mutagenic call,[10],active; positive
same,call,"Species/Cell Type: Nonhuman, Assay Code: CCGT, Evaluation Type: Evaluation A (Pre-1980)",no conclusion
same,mutagenic call,"Species/Cell Type: Saccharomyces cerevisiae, Assay Type: Forward gene mutation, Assay Code: YEF+, Evaluation Type: Evaluation A (Pre-1980)",active; positive
C(CC1CO1)C1CO1 (configuration not stated),mutagenic call,[10],active; positive
same,call,"Species/Cell Type: Nonhuman, Assay Code: CCG+L, Evaluation Type: Evaluation A (Pre-1980)",active; positive
same,mutagenic call,"Species/Cell Type: Schizosaccharomyces pombe, Assay Type: Reverse gene mutation, Assay Code: YEZ+, Evaluation Type: Evaluation A (Pre-1980)",active; positive
ClCCBr,mutagenic call,"Species/Cell Type: Chinese hamster ovary (CHO) cells, Assay Type: Forward gene mutation at the HPRT locus, Assay Code: CHO+, Evaluation Type: Evaluation B (Post-1980)",active; positive
same,mutagenic call,[11],active; positive
CC1CN1P(=O)(N(C)C)N(C)C (configuration not stated),mutagenic call,"Species/Cell Type: Drosophila melanogaster, Assay Type: Sex-linked recessive lethal gene mutation, Assay Code: SRL+, Evaluation Type: Evaluation A (Pre-1980)",active; positive
CN(C)c1ccc(Cc2ccc(N(C)C)cc2)cc1,mutagenic call,[11],active; positive
same,mutagenic call,"Species/Cell Type: Fischer rat embryo (RLV/1706) cells, Assay Type: Cell transformation, viral enhanced, Assay Code: CTR+, Evaluation Type: Evaluation A (Pre-1980)",active; positive
same,mutagenic call,"Species/Cell Type: Human diploid fibroblasts, Assay Type: Unscheduled DNA synthesis (UDS) in vitro, DNA effects, Assay Code: UDH-, Evaluation Type: Evaluation A (Pre-1980)",inactive; negative
same,call,[12],active; positive
same,mutagenic call,"Species/Cell Type: Nonhuman, Assay Type: Sister-chromatid exchange (SCE) in vitro, Assay Code: SC2+, Evaluation Type: Evaluation B (Post-1980)",active; positive
same,mutagenic call,"Species/Cell Type: Saccharomyces cerevisiae, Assay Type: Mitotic recombination or gene conversion, Assay Code: YEH-, Evaluation Type: Evaluation A (Pre-1980)",inactive; negative
same,mutagenic call,"Species/Cell Type: Salmonella typhimurium, Assay Type: Forward and reverse gene mutation, host-mediated assay, Assay Code: HMA+, Evaluation Type: Evaluation A (Pre-1980)",active; positive
same,mutagenic call,"Species/Cell Type: Syrian hamster embryo (SHE) cells, Assay Type: Cell transformation, clonal assay, Assay Code: CTC+, Evaluation Type: Evaluation A (Pre-1980)",active; positive
Cc1ccc(N)cc1O,mutagenic call,"Species/Cell Type: Mammalian polychromatic erythrocytes, Assay Type: Micronucleus test, chromosome aberrations, Assay Code: MNTT, Evaluation Type: Evaluation A (Pre-1980)",no conclusion
Nc1ccc2nc3ccc(N)cc3[n+](-c3ccccc3)c2c1,mutagenic call,[9],no conclusion
O=[N+]([O-])[O-].O=[N+]([O-])[O-].[Cd+2],mutagenic call,"Species/Cell Type: Bacillus subtilis (H17 vs M45), Assay Type: Rec-assay, spot test, DNA effects (bacterial DNA repair), Assay Code: REW+, Evaluation Type: Evaluation A (Pre-1980)",active; positive
CCC(C)CCCC(=O)N[C@@H](CCN)C(=O)N[C@H](C(=O)N[C@@H](CCN)C(=O)N[C@H]1CCNC(=O)C([C@@H](C)O)NC(=O)[C@@H](CCN)NC(=O)[C@H](CCN)NC(=O)[C@@H](CC(C)C)NC(=O)[C@@H](CC(C)C)NC(=O)[C@H](CCN)NC1=O)[C@@H](C)O (stereo partly drawn) ({Heptanoyl(5-Me)}-[Dab]T[Dab][Dab][Dab][dL][dL][Dab][dDab][ξThr(3R)]; lactam 4-C),mutagenic call,"Species/Cell Type: Escherichia coli polA (W3119 vs P3478), Assay Type: Rec-assay, DNA effects (bacterial DNA repair), Assay Code: RE1-, Evaluation Type: Evaluation A (Pre-1980)",inactive; negative
same,mutagenic call,"Species/Cell Type: Human lymphocytes, Assay Type: Sister-chromatid exchange (SCE) in vitro, Assay Code: SCL-, Evaluation Type: Evaluation B (Post-1980)",inactive; negative
same,mutagenic call,"Species/Cell Type: Human, Assay Type: Sister-chromatid exchange (SCE) in vitro, Assay Code: SC1-, Evaluation Type: Evaluation B (Post-1980)",inactive; negative
COP(=S)(OC)Oc1cc(Cl)c(Cl)cc1Cl,mutagenic call,[1],active; positive
C1COCCO1,call,[12],active; positive
same,mutagenic call,"Species/Cell Type: Syrian hamster embryo (SA7/SHE) cells, Assay Type: Cell transformation, viral enhanced, Assay Code: CT7-, Evaluation Type: Evaluation A (Pre-1980)",inactive; negative
N#Cc1c(Cl)cccc1Cl,mutagenic call,[7],inactive; negative
CC(=O)NO,mutagenic call,"Species/Cell Type: Human lymphocytes or leukocytes, Assay Type: Chromosome aberrations in vitro, Assay Code: CY7-, Evaluation Type: Evaluation A (Pre-1980)",inactive; negative
Cc1nc(-c2ccc([N+](=O)[O-])o2)cs1,mutagenic call,[3],active; positive
same,mutagenic call,"Species/Cell Type: Salmonella typhimurium (one or more of the five standard strains: TA98, TA100, TA1535, TA1537, and TA1538), Assay Type: Histidine reverse gene mutation, Ames assay, Assay Code: SAL+, Evaluation Type: Evaluation A (Pre-1980)",active; positive
CO[C@@]12[C@H](CO)C3=C(C(=O)C(C)=C(N)C3=O)N1C[C@@H]1N[C@@H]12,mutagenic call,[6],active; positive
same,mutagenic call,[1],active; positive
same,mutagenic call,[3],active; positive
COC(=O)NC(=S)Nc1ccccc1N,mutagenic call,"Species/Cell Type: Aspergillus nidulans, Assay Type: Aneuploidy, chromosome aberrations, Assay Code: ASN+, Evaluation Type: Evaluation A (Pre-1980)",active; positive
same,mutagenic call,"Species/Cell Type: Aspergillus nidulans, Assay Type: Mitotic recombination, Assay Code: ASG-, Evaluation Type: Evaluation A (Pre-1980)",inactive; negative
CCCCCCCCCCCCCC(=O)ON(C(C)=O)c1ccc2c(c1)Cc1ccccc1-2,mutagenic call,"Species/Cell Type: Human diploid fibroblasts, Assay Type: Unscheduled DNA synthesis (UDS) in vitro, DNA effects, Assay Code: UDH+, Evaluation Type: Evaluation A (Pre-1980)",active; positive
same,mutagenic call,[8],no conclusion
CC(=O)Nc1ccc(C(O)C(O)c2ccccc2)cc1 (configuration not stated),mutagenic call,[8],no conclusion
